The nature of assay [1]: Inhibition of human N-terminally His6-tagged N-acetylglucosaminyltransferase 3 expressed in HEK293T cells assessed as GN-GnGnbi-PAs molar ratio level incubated for 1 hr using 5 uM GnGnbi-PA acceptor substrate and 0.5 to 4 mM UDP-GlcNAc donor substrate by reverse phase HPLC method.
Assay [2] can be described thus: Inhibition of human N-terminally His6-tagged N-acetylglucosaminyltransferase 3 expressed in HEK293T cells assessed as GN-GnGnbi-PAs molar ratio level incubated for 1 hr using 2.5 to 10 uM GnGnbi-PA acceptor substrate and 20 mM UDP-GlcNAc donor substrate by reverse phase HPLC method.

Consider `CO[C@H]1O[C@H](CO[C@H]2O[C@H](CO)[C@@H](O)[C@H](O)[C@@H]2O[C@@H]2O[C@H](CO)[C@@H](O)[C@H](O)[C@H]2NC(C)=O)[C@@H](O[C@@H]2O[C@H](CO)[C@@H](O)[C@H](O)[C@H]2NC(C)=O)[C@H](O[C@H]2O[C@H](CO)[C@@H](O)[C@H](O)[C@@H]2O[C@@H]2O[C@H](CO)[C@@H](O)[C@H](O)[C@H]2NC(C)=O)[C@@H]1O`, for which the values for the Ki in assay [1] and in assay [2] were 1500 µM and 14000 µM, respectively.

Take `CO[C@H]1O[C@H](CO[C@H]2O[C@H](CO)[C@@H](O)[C@H](O)[C@@H]2O[C@@H]2O[C@H](CO)[C@@H](O)[C@H](O)[C@H]2NC(C)=O)[C@@H](O)[C@H](O[C@H]2O[C@H](CO)[C@@H](O)[C@H](O)[C@@H]2O[C@@H]2O[C@H](CO)[C@@H](O)[C@H](O)[C@H]2NC(C)=O)[C@@H]1O`: the Ki in assay [1] came to 1400 µM; in assay [2], 1200 µM.

For orientation: Ki means a dissociation constant, usually derived from enzyme kinetics or from competition with a known ligand.

The record behind these values is BindingDB's records for doi:10.1016/j.bmcl.2014.07.074 (Riken-Max Planck Joint Research Center For Systems Chemical …, 2014).
